Source: patent publication US20170135990A1, “PHARMACEUTICAL COMPOSITIONS COMPRISING A 5,5-FUSED HETEROARYLENE FLAVIVIRIDAE INHIBITOR AND THEIR USE FOR TREATING OR PREVENTING FLAVIVIRIDAE INFECTION” (IDENIX PHARMACEUTICALS LLC, priority 2014, published 2017)

Tests used:
[1] = aqueous solubility and permeability, BCS classification; format: physicochemical
Description: Compound A1 has a low aqueous solubility and low permeability and, thus, is classified as a BCS class IV compound, which presents a significant formulation challenge. Cook et al., AAPS J. 2008, 10, 306-310.

[2] = pharmacokinetic study in the monkey, PEG200 solution formulation; format: in vivo; details: 500 mg/kg, fed conditions
Description: Initial pharmacokinetic studies on compound A1 were performed both in vitro and in the monkey using a solution formulation containing PEG200. Compound A1 in the PEG200 solution was determined to have bioavailability of 0.1% F when administered at a dose of 500 mg/kg to the monkey under fed conditions.

In the case of `COC(=O)N[C@H](C(=O)N1CCC[C@H]1c1nc2cc(-c3csc4c(-c5ccc(-c6cnc([C@@H]7CCCN7C(=O)[C@H](NC(=O)OC)c7ccccc7)[nH]6)cc5)csc34)ccc2[nH]1)C(C)C` [compound A1, methyl N-[(1R)-2-[(2S)-2-[5-[4-[6-[2-[(2S)-1-[(2S)-2-(methoxycarbonylamino)-3-methyl-butanoyl]pyrrolidin-2-yl]-3H-benzimidazol-5-yl]thieno[3,2-b]thiophen-3-yl]phenyl]-1H-imidazol-2-yl]pyrrolidin-1-yl]-2-oxo-1-phenyl-ethyl]carbamate], the aqueous solubility [1] is reported as “low” and the bioavailability [2] is reported as 0.1 % F.
